Where two headings read alike, the source gives them in different places.

One may read the IC50 as the concentration needed to halve the response being measured.

In assay [1] the target is AktK (Homo sapiens, UniProt P31749). As to the kind of experiment: Luciferase-coupled chemiluminescence kinase assay (ATP consumption). The class given is biochemical. The following applies: read-out: AKT-1 IC50. The method, boiled down:
(§1)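 Enzyme at 2.5-5 nM was preincubated 30 min at room temperature with compound in Tris pH 7.5, MgCl2, TX-100, DTT, then reacted with ATP for 3 h at ambient temperature. Remaining ATP was quantified by luciferase-luciferin chemiluminescence, with consumption kept at 25-60%; […].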

Assay [2] concerns the target p70S6K (Homo sapiens, UniProt P23443). The description is as above. The class given is biochemical. In outline:
as §1

AktK, sequence (P31749 whole entry): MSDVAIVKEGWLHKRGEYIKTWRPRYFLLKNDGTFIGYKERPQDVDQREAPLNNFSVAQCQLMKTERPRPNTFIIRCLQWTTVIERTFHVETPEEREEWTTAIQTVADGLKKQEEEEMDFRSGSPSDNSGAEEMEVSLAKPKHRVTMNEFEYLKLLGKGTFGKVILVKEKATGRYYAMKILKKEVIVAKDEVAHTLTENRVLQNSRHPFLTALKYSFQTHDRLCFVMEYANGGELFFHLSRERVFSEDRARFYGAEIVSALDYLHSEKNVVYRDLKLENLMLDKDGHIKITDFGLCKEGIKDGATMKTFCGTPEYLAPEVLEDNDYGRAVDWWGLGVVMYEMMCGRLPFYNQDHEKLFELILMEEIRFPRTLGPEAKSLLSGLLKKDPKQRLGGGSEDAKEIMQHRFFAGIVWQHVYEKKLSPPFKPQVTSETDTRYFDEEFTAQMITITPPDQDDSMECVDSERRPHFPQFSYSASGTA
p70S6K, sequence (P23443 whole entry): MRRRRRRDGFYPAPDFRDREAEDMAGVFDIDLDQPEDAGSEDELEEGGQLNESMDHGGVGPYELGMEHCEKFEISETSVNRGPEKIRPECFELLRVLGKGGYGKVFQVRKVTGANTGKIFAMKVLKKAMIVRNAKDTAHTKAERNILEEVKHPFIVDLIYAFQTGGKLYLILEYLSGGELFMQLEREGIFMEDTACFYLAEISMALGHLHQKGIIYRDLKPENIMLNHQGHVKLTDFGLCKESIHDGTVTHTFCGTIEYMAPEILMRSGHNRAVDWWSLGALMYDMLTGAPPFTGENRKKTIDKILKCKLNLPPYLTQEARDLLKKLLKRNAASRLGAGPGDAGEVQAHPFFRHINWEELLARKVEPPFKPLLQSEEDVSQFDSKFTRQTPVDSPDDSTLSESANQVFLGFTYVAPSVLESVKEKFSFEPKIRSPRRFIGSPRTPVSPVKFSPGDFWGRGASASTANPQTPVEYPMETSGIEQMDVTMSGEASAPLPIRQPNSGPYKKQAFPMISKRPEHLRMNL

Regarding `Cc1ccc(Cl)cc1N1CCN(c2ncnc3[nH]nc(-c4ccc(OCCN5CCOCC5)cc4)c23)CC1` [Entry 373, 4-[4-(5-chloro-2-methylphenyl)piperazin-1-yl]-3-{4-[(2-morpholin-4-ylethyl)oxy]phenyl}-1H-pyrazolo[3,4-d]pyrimidine], the concentration for half-maximal inhibition (IC50) in assay [1] and in assay [2] was 1000 to 10000 nM in each case.
In the case of `CC(C)CCNc1c(F)c(F)nc(N2CCN(c3ncnc4[nH]nc(Br)c34)CC2)c1F` [Entry 257, 2-[4-(3-bromo-1H-pyrazolo[3,4-d]pyrimidin-4-yl)piperazin-1-yl]-3,5,6-trifluoro-N-(3-methylbutyl)pyridin-4-amine], the IC50 in assay [1] (Table 1, class symbols per key) is 1000 to 10000 nM; in assay [2] (Table 1, class symbols per key), 100 to 1000 nM.
Consider `Cc1ccccc1N1CCN(c2ncnc3[nH]ncc23)CC1` [Entry 317, 4-[4-(2-methylphenyl)piperazin-1-yl]-1H-pyrazolo[3,4-d]pyrimidine], for which the IC50 in assay [1] is at least 10000 nM; in assay [2], 100 to 1000 nM.
Regarding `CCc1n[nH]c2ncnc(N3CCN(c4cccc(Cl)c4)C(C(=O)O)C3)c12` (centres unmarked) [Entry 352, 1-(3-chlorophenyl)-4-(3-ethyl-1H-pyrazolo[3,4-d]pyrimidin-4-yl)piperazine-2-carboxylic acid], the IC50 in assay [1] is at least 10000 nM; in assay [2] it was 100 to 1000 nM.
Turning to `CCc1n[nH]c2ncnc(N3CCN(c4cccc(Cl)c4)C(C(=O)NCCN(C)C)C3)c12` (centres unmarked) [Entry 360, 1-(3-chlorophenyl)-N-[2-(dimethylamino)ethyl]-4-(3-ethyl-1H-pyrazolo[3,4-d]pyrimidin-4-yl)piperazine-2-carboxamide], the IC50 in assay [1] and in assay [2] was 1000 to 10000 nM throughout.
On to `Cc1c(NCCN(C)C)cc(C(=O)NC(C)C)cc1N1CCN(c2ncnc3[nH]nc(Br)c23)CC1` [Entry 227, 3-[4-(3-bromo-1H-pyrazolo[3,4-d]pyrimidin-4-yl)piperazin-1-yl]-5-{[2-(dimethylamino)eth-yl]amino}-4-methyl-N-(1-methylethyl)benzamide], for which the IC50 was below 100 nM in assay [1] (Table 1, class symbols per key) and below 100 nM in assay [2] (Table 1, class symbols per key).
With `Cc1c(NCCN2CCCC2)cc(OCC2CC2)cc1N1CCN(c2ncnc3[nH]nc(Br)c23)CC1` [Entry 205, 3-[4-(3-bromo-1H-pyrazolo[3,4-d]pyrimidin-4-yl)piperazin-1-yl]-5-[(cyclopropylmethyl)oxy]-2-methyl-N-(2-pyrrolidin-1-ylethyl)aniline], the 50% inhibitory concentration (IC50) in assay [1] (Table 1, class symbols per key) was below 100 nM; in assay [2] (Table 1, class symbols per key), below 100 nM.
Regarding `Cc1c(OCC2CCN(C)CC2)cc(Cl)cc1N1CCN(c2ncnc3[nH]nc(C(F)(F)F)c23)CC1` [Entry 90, 4-[4-(5-chloro-2-methyl-3-{[(1-methylpiperidin-4-yl)methyl]oxy}phenyl)piperazin-1-yl]-3-(trifluoro-methyl)-1H-pyrazolo[3,4-d]pyrimidine], the half-maximal inhibitory concentration (IC50) was 100 to 1000 nM in assay [1] (Table 1, class symbols per key) and below 100 nM in assay [2] (Table 1, class symbols per key).
Take `CCc1n[nH]c2ncnc(N3CCN(c4cc(Cl)cc(C(=O)NCCN(C)C)c4OC)CC3)c12` [Entry 374, 5-chloro-N-[2-(dimethylamino)ethyl]-3-[4-(3-ethyl-1H-pyrazolo[3,4-d]pyrimidin-4-yl)piperazin-1-yl]-2-(methyloxy)benzamide]: the IC50 in assay [1] was 1000 to 10000 nM; in assay [2], below 100 nM.
On the same counts, the results for `Cc1ccc(Cl)cc1N1CCN(c2ncnc3[nH]nc(-c4ccncc4)c23)CC1` [Entry 364, 4-[4-(5-chloro-2-methylphenyl)piperazin-1-yl]-3-pyridin-4-yl-1H-pyrazolo[3,4-d]pyrimidine] are 1000 to 10000 nM and below 100 nM.
As for `Cc1c(OCCCN2CCCCC2)cc(Cl)cc1N1CCN(c2ncnc3[nH]nc(Br)c23)CC1` [Entry 37, 3-bromo-4-(4-{5-chloro-2-methyl-3-[(3-piperidin-1-ylpropyl)oxy]phenyl}piperazin-1-yl)-1H-pyrazolo[3,4-d]pyrimidine], the IC50 is 100 to 1000 nM in assay [1] (Table 1, class symbols per key) and below 100 nM in assay [2] (Table 1, class symbols per key).
For `Cc1c(OCCN2CCCC2)cc(Cl)cc1N1CCN(c2ncnc3[nH]nc(C4CC4)c23)CC1` [Entry 160, 4-(4-{5-chloro-2-methyl-3-[(2-pyrrolidin-1-ylethyl)oxy]phenyl}piperazin-1-yl)-3-cyclopropyl-1H-pyrazolo[3,4-d]pyrimidine], in that order: 1000 to 10000 nM and below 100 nM.
As for `CCc1n[nH]c2ncnc(N3CCN(c4cc(Cl)cc(NCCN(C)C)c4C)CC3)c12` [Entry 386, N′-{5-chloro-3-[4-(3-ethyl-1H-pyrazolo[3,4-d]pyrimidin-4-yl)piperazin-1-yl]-2-methylphenyl}-N,N-dimethylethane-1,2-diamine], the IC50 is 100 to 1000 nM in assay [1] and below 100 nM in assay [2].
With `Cc1c(CCCN2CCCC2)cc(Cl)cc1N1CCN(c2ncnc3[nH]ncc23)CC1` [Entry 59, 4-{4-[5-chloro-2-methyl-3-(3-pyrrolidin-1-ylpropyl)phenyl]piperazin-1-yl}-1H-pyrazolo[3,4-d]pyrimidine], the IC50 in assay [1] (Table 1, class symbols per key) is 1000 to 10000 nM; in assay [2] (Table 1, class symbols per key), below 100 nM.
Regarding `Cc1ccc(Cl)cc1N1CCN(c2ncnc3[nH]nc(-c4ccc(O)cc4)c23)CC1` [Entry 331, 4-{4-[4-(5-chloro-2-methylphenyl)piperazin-1-yl]-1H-pyrazolo[3,4-d]pyrimidin-3-yl}phenol], the IC50 is 1000 to 10000 nM in assay [1] and below 100 nM in assay [2].
`Cc1c(OCCN2CCCC2)cc(Cl)cc1N1CCN(c2ncnc3[nH]nc(CC(C)C)c23)CC1` [Entry 163, 4-(4-{5-chloro-2-methyl-3-[(2-pyrrolidin-1-ylethyl)oxy]phenyl}piperazin-1-yl)-3-(2-methylpropyl)-1H-pyrazolo[3,4-d]pyrimidine]: the IC50 in assay [1] (Table 1, class symbols per key) is 1000 to 10000 nM; in assay [2] (Table 1, class symbols per key) it was below 100 nM.
Turning to `CCc1n[nH]c2ncnc(N3CCN(c4cc(Cl)ccc4C)CC3)c12` [Entry 323, 4-[4-(5-chloro-2-methylphenyl)piperazin-1-yl]-3-ethyl-1H-pyrazolo[3,4-d]pyrimidine], the IC50 in assay [1] is 1000 to 10000 nM; in assay [2], below 100 nM.
For `Cc1ccc(Cl)cc1N1CCN(c2nc(C(C)C)nc3[nH]ncc23)CC1` [Entry 326, 4-[4-(5-chloro-2-methylphenyl)piperazin-1-yl]-6-(1-methylethyl)-1H-pyrazolo[3,4-d]pyrimidine], in that order: 1000 to 10000 nM and 1000 to 10000 nM.
On the same counts, the results for `CCc1n[nH]c2ncnc(N3CCN(c4ccc(OCCN5CCOCC5)c(Cl)c4)CC3)c12` [Entry 345, 4-(4-{3-chloro-4-[(2-morpholin-4-ylethyl)oxy]phe-nyl}piperazin-1-yl)-3-ethyl-1H-pyrazolo[3,4-d]pyrimidine] are at least 10000 nM and 1000 to 10000 nM.
Consider `Cc1ccc(C(=O)NCC(C)C)cc1N1CCN(c2ncnc3[nH]nc(Cl)c23)CC1` [Entry 197, 3-[4-(3-chloro-1H-pyrazolo[3,4-d]pyrimidin-4-yl)piperazin-1-yl]-4-methyl-N-(2-methylpropyl)benzamide], for which the IC50 in assay [1] (Table 1, class symbols per key) was 1000 to 10000 nM; in assay [2] (Table 1, class symbols per key) it was below 100 nM.
On the same counts, the results for `CCN(CC)CCOc1cc(Cl)cc(N2CCN(c3ncnc4c3c(C(F)(F)F)nn4C(C)(C)C)CC2)c1C` [Entry 33, 2-[(5-chloro-3-{4-[1-(1,1-dimethylethyl)-3-(tri-fluoromethyl)-1H-pyrazolo[3,4-d]pyrimidin-4-yl]piperazin-1-yl}-2-methylphenyl)oxy]-N,N-diethylethanamine] are 1000 to 10000 nM and 1000 to 10000 nM.
On the same counts, the results for `Cc1ccc(C(=O)N(C)C)cc1N1CCN(c2ncnc3[nH]nc(Br)c23)CC1` [Entry 196, 3-[4-(3-bromo-1H-pyrazolo[3,4-d]pyrimidin-4-yl)piperazin-1-yl]-N,N,4-trimethylbenzamide] are 100 to 1000 nM and below 100 nM.
Regarding `COCCOCc1n[nH]c2ncnc(N3CCN(c4cc(Cl)ccc4C)CC3)c12` [Entry 328, 4-[4-(5-chloro-2-methylphenyl)piperazin-1-yl]-3-({[2-(methyloxy)ethyl]oxy}methyl)-1H-pyrazolo[3,4-d]pyrimidine], the half-maximal inhibitory concentration (IC50) in assay [1] was 1000 to 10000 nM; in assay [2] it was below 100 nM.
`Cc1c(OCCCN2CCOCC2)cc(Cl)cc1N1CCN(c2ncnc3[nH]nc(Br)c23)CC1` [Entry 38, 3-bromo-4-(4-{5-chloro-2-methyl-3-[(3-morpholin-4-ylpropyl)oxy]phenyl}piperazin-1-yl)-1H-pyrazolo[3,4-d]pyrimidine]: the IC50 was 100 to 1000 nM in assay [1] (Table 1, class symbols per key) and below 100 nM in assay [2] (Table 1, class symbols per key).
On the same counts, the results for `CCC(=O)c1cc(NCCN2CCCC2)c(C)c(N2CCN(c3ncnc4[nH]nc(Br)c34)CC2)c1` [Entry 243, 1-{3-[4-(3-bromo-1H-pyrazolo[3,4-d]pyrimidin-4-yl)piperazin-1-yl]-4-methyl-5-[(2-pyrrolidin-1-ylethyl)amino]phenyl}propan-1-one] are below 100 nM and below 100 nM.
For `CCC(CC)COc1cc(NCCN2CCCC2)c(C)c(N2CCN(c3ncnc4[nH]nc(Br)c34)CC2)c1` [Entry 207, 3-[4-(3-bromo-1H-pyrazolo[3,4-d]pyrimidin-4-yl)piperazin-1-yl]-5-[(2-ethylbutyl)oxy]-2-methyl-N-(2-pyrrolidin-1-ylethyl)aniline], in that order: below 100 nM and below 100 nM.
For `CCOc1cc(NCCN2CCCC2)c(C)c(N2CCN(c3ncnc4[nH]nc(Br)c34)CC2)c1` [Entry 212, 3-[4-(3-bromo-1H-pyrazolo[3,4-d]pyrimidin-4-yl)piperazin-1-yl]-5-(ethyloxy)-2-methyl-N-(2-pyrrolidin-1-ylethyl)aniline], in that order: below 100 nM and below 100 nM.
With `Cc1c(OCCCN2CCOCC2)cc(Cl)cc1N1CCN(c2ncnc3[nH]nc(C(F)(F)F)c23)CC1` [Entry 40, 4-(4-{5-chloro-2-methyl-3-[(3-morpholin-4-ylpropyl)oxy]phenyl}piperazin-1-yl)-3-(trifluoromethyl)-1H-pyrazolo[3,4-d]pyrimidine], the IC50 in assay [1] (Table 1, class symbols per key) was 1000 to 10000 nM; in assay [2] (Table 1, class symbols per key) it was below 100 nM.

The record behind these values is patent US8076338B2, “Kinase modulators and methods of use” (Exelixis, Inc., priority 2004, dated 2011).
